For the assay, the target named is T1, CXCR7 (Homo sapiens, UniProt P25106).
T1 construct: host or cells: CHO-K1 (PathHunter CHO-K1 CXCR7 b-arrestin cell line, stably transfected)
Kind of assay: PathHunter CHO-K1 CXCR7 b-arrestin recruitment assay (CXCR7 agonistic activity). Type of assay: cell-based. The conditions noted are these: PathHunter CHO-K1 CXCR7 b-arrestin cell line. The gist of the method:
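Stable CHO-K1 line with C-terminally ProLink-tagged CXCR7 and β-arrestin 2–EA fusion; β-arrestin recruitment restores β-gal activity, read by chemiluminescence after 1 h RT detection. Cells seeded 24 h, starved in OPTIMEM 3–4 h, exposed to compounds 90 min at 37 °C in HBSS/HEPES/BSA. Geometric-mean EC50 from repeated measurements.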
Background: Activated receptors often draw arrestin, which recruitment assays turn into a signal.

T1 sequence (P25106 whole entry): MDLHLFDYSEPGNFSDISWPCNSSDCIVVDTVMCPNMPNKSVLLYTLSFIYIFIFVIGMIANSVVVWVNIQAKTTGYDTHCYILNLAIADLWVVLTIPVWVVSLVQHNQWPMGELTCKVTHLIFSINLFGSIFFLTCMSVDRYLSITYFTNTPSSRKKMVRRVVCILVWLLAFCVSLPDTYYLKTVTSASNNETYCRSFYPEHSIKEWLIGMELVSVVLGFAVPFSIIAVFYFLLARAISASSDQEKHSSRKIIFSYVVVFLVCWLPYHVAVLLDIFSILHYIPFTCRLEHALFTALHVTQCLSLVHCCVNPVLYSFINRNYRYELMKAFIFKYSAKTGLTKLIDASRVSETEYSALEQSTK
T1 sequence (P32121 whole entry partner): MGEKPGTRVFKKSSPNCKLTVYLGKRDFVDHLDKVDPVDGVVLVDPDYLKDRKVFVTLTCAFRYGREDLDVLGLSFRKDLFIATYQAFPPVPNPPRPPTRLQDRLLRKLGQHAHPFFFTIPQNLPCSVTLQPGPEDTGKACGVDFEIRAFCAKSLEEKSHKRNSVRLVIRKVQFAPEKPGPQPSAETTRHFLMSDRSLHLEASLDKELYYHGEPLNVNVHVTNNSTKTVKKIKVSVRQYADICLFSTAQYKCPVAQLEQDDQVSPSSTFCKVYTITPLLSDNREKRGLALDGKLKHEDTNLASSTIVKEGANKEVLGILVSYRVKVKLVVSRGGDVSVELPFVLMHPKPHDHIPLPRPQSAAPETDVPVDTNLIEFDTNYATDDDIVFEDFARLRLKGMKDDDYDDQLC

For orientation: EC50 means the midpoint of the concentration-response curve. A higher EC50 goes with a less potent agent. Consider `COCCN1CCc2c(cccc2NCC(=O)N(Cc2ccccc2C(F)(F)F)CC(C)(C)O)C1` [Example 301, N-(2-Hydroxy-2-methyl-propyl)-2-[2-(2-methoxy-ethyl)-1,2,3,4-tetrahydro-isoquinolin-5-ylamino]-N-(2-trifluoromethyl-benzyl)-acetamide], for which a half-maximal effect (EC50) was put at 0.208 µM.
The result for `CNCCN(Cc1ncccc1C(F)(F)F)C(=O)CNc1cccc2c1CCN(C(C)=O)C2` [compound 408, 2-(2-Acetyl-1,2,3,4-tetrahydro-isoquinolin-5-ylamino)-N-(2-methylamino-ethyl)-N-(3-trifluoromethyl-pyridin-2-ylmethyl)-acetamide] reads 0.01 µM; that for `CN(C)CCN(Cc1cccc(OC(F)(F)F)c1)C(=O)CNc1cccc2c1CN(CC1CC1)CC2` [compound 471, 2-(2-Cyclopropylmethyl-1,2,3,4-tetrahydro-isoquinolin-8-ylamino)-N-(2-dimethylamino-ethyl)-N-(3-trifluoromethoxy-benzyl)-acetamide], 0.021 µM; that for `CN(C)CCN(Cc1ccccc1C(F)(F)F)C(=O)CNc1cccc2c1CN(C(=O)C(C)(C)C)CC2` [compound 551, N-(2-Dimethylamino-ethyl)-2-[2-(2,2-dimethyl-propionyl)-1,2,3,4-tetrahydro-isoquinolin-8-ylamino]-N-(2-trifluoromethyl-benzyl)-acetamide], 0.035 µM.
The result for `CN(C)CCN(Cc1ccccc1C(F)(F)F)C(=O)CNc1c(Cl)ccc2c1CCN(CC1CC1)C2` [Example 88, 2-(6-Chloro-2-cyclopropylmethyl-1,2,3,4-tetrahydro-isoquinolin-5-ylamino)-N-(2-dimethylamino-ethyl)-N-(2-trifluoromethyl-benzyl)-acetamide] reads 0.011 µM; that for `CN(C)CCN(Cc1ccc(Cl)cn1)C(=O)CNc1cccc2c1CCN(CC1CC1)C2` [Example 261, N-(5-Chloro-pyridin-2-ylmethyl)-2-(2-cyclopropylmethyl-1,2,3,4-tetrahydro-isoquinolin-5-ylamino)-N-(2-dimethylamino-ethyl)-acetamide], 0.047 µM; that for `CN(C)CCN(Cc1ncccc1Br)C(=O)CNc1cccc2c1CCN(CC1CC1)C2` [Example 236, N-(3-Bromo-pyridin-2-ylmethyl)-2-(2-cyclopropylmethyl-1,2,3,4-tetrahydro-isoquinolin-5-ylamino)-N-(2-dimethylamino-ethyl)-acetamide], 0.003 µM.
`CN(C)CCN(Cc1ccccc1C(F)(F)F)C(=O)CNc1cccc2c1CN(CC1CCCCC1)CC2` [compound 554, 2-(2-Cyclohexylmethyl-1,2,3,4-tetrahydro-isoquinolin-8-ylamino)-N-(2-dimethylamino-ethyl)-N-(2-trifluoromethyl-benzyl)-acetamide] came in with an EC50 of 0.005 µM.
The result for `CCN1CCc2cccc(NCC(=O)N(CCN(C)C)Cc3ncccc3Cl)c2C1` [compound 511, N-(3-Chloro-pyridin-2-ylmethyl)-N-(2-dimethylamino-ethyl)-2-(2-ethyl-1,2,3,4-tetrahydro-isoquinolin-8-ylamino)-acetamide] reads 0.029 µM.
Under `CNCCN(Cc1ccccc1Cl)C(=O)CNc1cccc2c1CCN(CC1CC1)C2` [compound 446, N-(2-Chloro-benzyl)-2-(2-cyclopropylmethyl-1,2,3,4-tetrahydro-isoquinolin-5-ylamino)-N-(2-methylamino-ethyl)-acetamide] stands 0.004 µM; under `CN(C)CCN(Cc1ccccc1C(F)(F)F)C(=O)CNc1cccc2c1CCN(C(=O)c1ccco1)C2` [Example 572, N-(2-Dimethylamino-ethyl)-2-[2-(furan-2-carbonyl)-1,2,3,4-tetrahydro-isoquinolin-5-ylamino]-N-(2-trifluoromethyl-benzyl)-acetamide], 0.005 µM.
Under `CN(C)CCN(Cc1ccccc1)C(=O)CNc1cccc2c1CCN(Cc1ccco1)C2` [compound 118] stands 0.126 µM; under `CCNCCN(Cc1ccccc1C(F)(F)F)C(=O)CNc1cccc2c1CCN(CC1CC1)C2` [compound 439, 2-(2-Cyclopropylmethyl-1,2,3,4-tetrahydro-isoquinolin-5-ylamino)-N-(2-ethylamino-ethyl)-N-(2-trifluoromethyl-benzyl)-acetamide], 0.003 µM.
`CCN1CCc2cccc(NCC(=O)N(CCN(C)C)Cc3ccc(OC)cc3)c2C1` [compound 499] yielded a 50% effective concentration (EC50) of 0.245 µM.
With `CCN1CCc2cccc(NCC(=O)N(CCN(C)C)Cc3cccc(C)c3)c2C1` [compound 495], the response was half-maximal at 0.063 µM (EC50).
`Cc1cccnc1CN(CCN(C)C)C(=O)CNc1cccc2c1CCN(CC1CC1)C2` [Example 256, 2-(2-Cyclopropylmethyl-1,2,3,4-tetrahydro-isoquinolin-5-ylamino)-N-(2-dimethylamino-ethyl)-N-(3-methyl-pyridin-2-ylmethyl)-acetamide]: the EC50 is 0.011 µM.
The result for `CCN1CCc2cccc(NCC(=O)N(CCN(C)C)Cc3ccc(C)cc3)c2C1` [compound 496] reads 0.079 µM; that for `CN(C)CCN(Cc1ccccc1)C(=O)CNc1cccc2c1CCN(C(=O)CC1CCCCC1)C2` [compound 129], 0.449 µM.
The result for `CCN1CCc2cccc(NCC(=O)N(CCN(C)C)Cc3ccc(Cl)cn3)c2C1` [compound 530] reads 0.174 µM; that for `CN(C)CCN(Cc1ncccc1F)C(=O)CNc1cccc2c1CCN(CC1CC1)C2` [Example 271, 2-(2-Cyclopropylmethyl-1,2,3,4-tetrahydro-isoquinolin-5-ylamino)-N-(2-dimethylamino-ethyl)-N-(3-fluoro-pyridin-2-ylmethyl)-acetamide], 0.01 µM.
The molecule `CC(C)C(=O)N1CCc2c(cccc2OCC(=O)N(CCN(C)C)Cc2ccccc2)C1` [compound 170] came in with an EC50 of 0.074 µM.
The result for `O=C1CCCN1CCN(Cc1ccccc1C(F)(F)F)C(=O)CNc1cccc2c1CCN(CC1CC1)C2` [Example 63, 2-(2-Cyclopropylmethyl-1,2,3,4-tetrahydro-isoquinolin-5-ylamino)-N-[2-(2-oxo-pyrrolidin-1-yl)-ethyl]-N-(2-trifluoromethyl-benzyl)-acetamide] reads 0.019 µM; that for `COCCN1CCc2c(CCC(=O)N(CCC(C)(C)O)Cc3ccccc3C(F)(F)F)cccc2C1` [Example 344, N-(3-Hydroxy-3-methyl-butyl)-3-[2-(2-methoxy-ethyl)-1,2,3,4-tetrahydro-isoquinolin-5-yl]-N-(2-trifluoromethyl-benzyl)-propionamide], 0.438 µM.
`CCC(=O)N1CCc2c(cccc2NCC(=O)N(CCNC)Cc2ncccc2C(F)(F)F)C1` [compound 409, N-(2-Methylamino-ethyl)-2-(2-propionyl-1,2,3,4-tetrahydro-isoquinolin-5-ylamino)-N-(3-trifluoromethyl-pyridin-2-ylmethyl)-acetamide]: the concentration for a half-maximal effect (EC50) was 0.008 µM.
`CC(C)(C)OC(=O)N1CCC(CN(Cc2ccccc2C(F)(F)F)C(=O)CNc2cccc3c2CCN(CC2CC2)C3)C1` (stereo not drawn) [Example 253, 3-{[[2-(2-Cyclopropylmethyl-1,2,3,4-tetrahydro-isoquinolin-5-ylamino)-acetyl]-(2-trifluoromethyl-benzyl)-amino]-methyl}-pyrrolidine-1-carboxylic acid tert-butyl ester] yielded an EC50 of 0.042 µM.
For `CN(C)CCN(CCc1ccc(C(F)(F)F)cc1)C(=O)CNc1cccc2c1CCN(CC1CC1)C2` [Example 56, 2-(2-Cyclopropylmethyl-1,2,3,4-tetrahydro-isoquinolin-5-ylamino)-N-(2-dimethylamino-ethyl)-N-[2-(4-trifluoromethyl-phenyl)-ethyl]-acetamide], a half-maximal response (EC50) required 0.07 µM.
The result for `C=CCN(C)CCN(Cc1ccccc1C(F)(F)F)C(=O)CCc1cccc2c1CN(CC=C)CC2` [compound 467, N-[2-(Allyl-methyl-amino)-ethyl]-3-(2-allyl-1,2,3,4-tetrahydro-isoquinolin-8-yl)-N-(2-trifluoromethyl-benzyl)-propionamide] reads 0.014 µM; that for `CN(C)CCN(Cc1ccccc1C(F)(F)F)C(=O)CNc1cc(C(F)(F)F)cc2c1CCN(CC1CC1)C2` [Example 296, 2-(2-Cyclopropylmethyl-7-trifluoromethyl-1,2,3,4-tetrahydro-isoquinolin-5-ylamino)-N-(2-dimethylamino-ethyl)-N-(2-trifluoromethyl-benzyl)-acetamide], 0.43 µM; that for `CN(C)CCN(Cc1ncccc1C(F)(F)F)C(=O)CNc1cccc2c1CCN(C1COC1)C2` [Example 367, N-(2-Dimethylamino-ethyl)-2-(2-oxetan-3-yl-1,2,3,4-tetrahydro-isoquinolin-5-ylamino)-N-(3-trifluoromethyl-pyridin-2-ylmethyl)-acetamide], 0.115 µM.
Under `CN(C)CCN(Cc1ncccc1Br)C(=O)CNc1cccc2c1C(C)(C)CN(CC1CC1)C2` [Example 575, N-(3-Bromo-pyridin-2-ylmethyl)-2-(2-cyclopropylmethyl-4,4-dimethyl-1,2,3,4-tetrahydro-isoquinolin-5-ylamino)-N-(2-dimethylamino-ethyl)-acetamide] stands 0.0009 µM.
Under `CN1CCCC1CCN(C/C=C/c1ccccc1)C(=O)CNc1cccc2c1CCN(CC1CC1)C2` (racemic) [Example 53, rac-2-(2-Cyclopropylmethyl-1,2,3,4-tetrahydro-isoquinolin-5-ylamino)-N-[2-(1-methyl-pyrrolidin-2-yl)-ethyl]-N-((E)-3-phenyl-allyl)-acetamide] stands 0.023 µM.
On to `CCC(=O)N1CCc2c(cccc2NCC(=O)N(CCN(C)C)Cc2cccc(Cl)c2)C1` [Example 18, N-(3-Chloro-benzyl)-N-(2-dimethylamino-ethyl)-2-(2-propionyl-1,2,3,4-tetrahydro-isoquinolin-5-ylamino)-acetamide], for which the EC50 worked out at 0.061 µM.
In turn, `COCCN1CCc2c(cccc2NCC(=O)N(CCN(C)C)Cc2ncccc2Cl)C1` [Example 306, N-(3-Chloro-pyridin-2-ylmethyl)-N-(2-dimethylamino-ethyl)-2-[2-(2-methoxy-ethyl)-1,2,3,4-tetrahydro-isoquinolin-5-ylamino]-acetamide] registered an EC50 of 0.039 µM.

The record behind these values is US9920010B2, “CXCR7 receptor modulators” (IDORSIA PHARMACEUTICALS LTD, priority 2013, dated 2018).
